Reference: ChEMBL document CHEMBL3885861, “Open TG-GATES”

Species on record: Rattus norvegicus
Test: Open TG-GATES - Regimen: Daily Repeat
Assay type: toxicity, organism-based, Sprague-Dawley
Design: regimen Daily Repeat, gender Male, age 6 weeks
Conditions: in vivo, po, route gavage; for APTT / Bas / Eos / Fbg / Hb / Ht / Lym / MCH / MCHC / MCV / Mono / Neu / PT / Plat / RBC / Ret / WBC: tissue Blood; for KIDNEY_L / KIDNEY_R / KIDNEY_TOTAL: tissue Kidney; for LIVER: tissue Liver; for ALP / ALT / AST / BUN / CRE / Ca / DBIL / GLC / IP / K / LDH / Na / PL / RALB / TBIL / TC / TG / TP / gamma-GTP: tissue Plasma
[1] = 0 mg/kg, 72 h, dose level Control, time 3 day
[2] = 0 mg/kg, […], dose level Control, time 7 day
[3] = 0 mg/kg, […], dose level Control, time 14 day
[4] = 0 mg/kg, […], dose level Control, time 28 day
[5] = 15 mg/kg, 72 h, dose level Low, time 3 day
[6] = 15 mg/kg, […], dose level Low, time 7 day
[7] = 15 mg/kg, […], dose level Low, time 14 day
[8] = 15 mg/kg, […], dose level Low, time 28 day

Oc1ncnc2[nH]ncc12 [ALLOPURINOL]
TERMINAL_BW [1]: 244.3 g
APTT [1]: 16.6 s
Bas [1]: 0%
Eos [1]: 0.8%
Fbg [1]: 237 mg/dL
Hb [1]: 13.9 g/dL
Ht [1]: 41.5%
Lym [1]: 74.6%
MCH [1]: 22.3 pg
MCHC [1]: 33.3%
MCV [1]: 66.7 fL
Mono [1]: 11.6%
Neu [1]: 12.8%
PT [1]: 11.9 s
Plat [1]: 93.5 x10_4/uL
RBC [1]: 623.2 x10_4/ul
Ret [1]: 7.7%
WBC [1]: 127.2 x10_2/uL
KIDNEY_L [1]: 1 g
KIDNEY_R [1]: 1 g
KIDNEY_TOTAL [1]: 2.1 g
LIVER [1]: 12.2 g
ALP [1]: 863.2 IU/L
ALT [1]: 34.2 IU/L
AST [1]: 58.2 IU/L
BUN [1]: 18.2 mg/dL
CRE [1]: 0.5 mg/dL
Ca [1]: 11.4 mg/dL
DBIL [1]: 0 mg/dL
GLC [1]: 201.6 mg/dL
IP [1]: 8.1 mg/dL
K [1]: 4.9 meq/L
LDH [1]: 84.6 IU/L
Na [1]: 137.8 meq/L
PL [1]: 174.6 mg/dL
RALB [1]: 3.9 g/dL
TBIL [1]: 0.2 mg/dL
TC [1]: 87.8 mg/dL
TG [1]: 130 mg/dL
TP [1]: 6 g/dL
gamma-GTP [1]: 1.2 IU/L
TERMINAL_BW [2]: 249.8 g
TERMINAL_BW [3]: 318.9 g
TERMINAL_BW [4]: 401.4 g
APTT [2]: 17.2 s
Bas [2]: 0%
Eos [2]: 1%
Fbg [2]: 242.2 mg/dL
Hb [2]: 15 g/dL
Ht [2]: 45.2%
Lym [2]: 77.8%
MCH [2]: 20.4 pg
MCHC [2]: 33.2%
MCV [2]: 61.4 fL
Mono [2]: 4.8%
Neu [2]: 16.8%
PT [2]: 12 s
Plat [2]: 118.1 x10_4/uL
RBC [2]: 737.4 x10_4/ul
Ret [2]: 4.5%
APTT [3]: 16.9 s
Bas [3]: 0%
Eos [3]: 1%
Fbg [3]: 227 mg/dL
Hb [3]: 14.5 g/dL
Ht [3]: 44%
Lym [3]: 76.4%
MCH [3]: 19.9 pg
MCHC [3]: 33%
MCV [3]: 60.5 fL
Mono [3]: 6%
Neu [3]: 16.8%
PT [3]: 11.9 s
Plat [3]: 97.7 x10_4/uL
RBC [3]: 728 x10_4/ul
Ret [3]: 3.7%
APTT [4]: 16.3 s
Bas [4]: 0%
Eos [4]: 1%
Fbg [4]: 230.6 mg/dL
Hb [4]: 14.8 g/dL
Ht [4]: 44.2%
Lym [4]: 80.8%
MCH [4]: 19.3 pg
MCHC [4]: 33.5%
MCV [4]: 57.6 fL
Mono [4]: 6.2%
Neu [4]: 11.8%
PT [4]: 12.3 s
Plat [4]: 109.3 x10_4/uL
RBC [4]: 766.8 x10_4/ul
Ret [4]: 3.5%
WBC [4]: 163 x10_2/uL
KIDNEY_L [2]: 1.1 g
KIDNEY_R [2]: 1.1 g
KIDNEY_TOTAL [2]: 2.1 g
KIDNEY_L [3]: 1.2 g
KIDNEY_R [3]: 1.2 g
KIDNEY_TOTAL [3]: 2.5 g
KIDNEY_L [4]: 1.4 g
KIDNEY_R [4]: 1.4 g
KIDNEY_TOTAL [4]: 2.8 g
LIVER [3]: 14.3 g
LIVER [4]: 16.2 g
ALP [2]: 874.8 IU/L
ALT [2]: 26 IU/L
AST [2]: 56.2 IU/L
BUN [2]: 22.4 mg/dL
CRE [2]: 0.5 mg/dL
DBIL [2]: 0.06 mg/dL
GLC [2]: 203 mg/dL
IP [2]: 7.7 mg/dL
K [2]: 4.6 meq/L
LDH [2]: 86.2 IU/L
Na [2]: 136.6 meq/L
PL [2]: 135.4 mg/dL
RALB [2]: 4 g/dL
TBIL [2]: 0.3 mg/dL
TC [2]: 68.2 mg/dL
TG [2]: 60.4 mg/dL
TP [2]: 6.2 g/dL
gamma-GTP [2]: 1.2 IU/L
ALP [3]: 710.4 IU/L
ALT [3]: 32 IU/L
AST [3]: 62.8 IU/L
BUN [3]: 17.8 mg/dL
CRE [3]: 0.6 mg/dL
Ca [3]: 10.9 mg/dL
DBIL [3]: 0.01 mg/dL
GLC [3]: 206.4 mg/dL
IP [3]: 7.9 mg/dL
K [3]: 4.3 meq/L
LDH [3]: 69.8 IU/L
Na [3]: 139.8 meq/L
PL [3]: 150 mg/dL
RALB [3]: 3.6 g/dL
TBIL [3]: 0.3 mg/dL
TC [3]: 70 mg/dL
TG [3]: 118 mg/dL
TP [3]: 6 g/dL
gamma-GTP [3]: 1.6 IU/L
ALP [4]: 602.4 IU/L
ALT [4]: 31.6 IU/L
AST [4]: 61.8 IU/L
BUN [4]: 20 mg/dL
CRE [4]: 0.4 mg/dL
DBIL [4]: 0.018 mg/dL
GLC [4]: 186 mg/dL
IP [4]: 6.5 mg/dL
K [4]: 4.7 meq/L
LDH [4]: 81 IU/L
Na [4]: 138.8 meq/L
PL [4]: 146.2 mg/dL
RALB [4]: 3.8 g/dL
TBIL [4]: 0.3 mg/dL
TC [4]: 67.2 mg/dL
TG [4]: 147.4 mg/dL
TP [4]: 6.2 g/dL
gamma-GTP [4]: 1.4 IU/L
TERMINAL_BW [5]: 242.3 g
APTT [5]: 16.5 s
Bas [5]: 0%
Eos [5]: 0.8%
Fbg [5]: 229.2 mg/dL
Hb [5]: 13.9 g/dL
Ht [5]: 41.8%
Lym [5]: 81.2%
MCH [5]: 21.5 pg
MCHC [5]: 33.3%
MCV [5]: 64.8 fL
Mono [5]: 6%
Neu [5]: 11.4%
PT [5]: 12.1 s
Plat [5]: 91.2 x10_4/uL
RBC [5]: 646.4 x10_4/ul
Ret [5]: 7%
WBC [5]: 93.9 x10_2/uL
KIDNEY_L [5]: 1 g
KIDNEY_R [5]: 1 g
KIDNEY_TOTAL [5]: 2.1 g
LIVER [5]: 11.7 g
ALT [5]: 33.4 IU/L
AST [5]: 67.4 IU/L
BUN [5]: 18.4 mg/dL
CRE [5]: 0.5 mg/dL
Ca [5]: 11.3 mg/dL
DBIL [5]: 0.002 mg/dL
GLC [5]: 193 mg/dL
IP [5]: 8.4 mg/dL
K [5]: 4.8 meq/L
LDH [5]: 85.2 IU/L
Na [5]: 139.2 meq/L
PL [5]: 162.4 mg/dL
RALB [5]: 3.9 g/dL
TBIL [5]: 0.3 mg/dL
TC [5]: 81.4 mg/dL
TG [5]: 111 mg/dL
TP [5]: 6.1 g/dL
gamma-GTP [5]: 1.6 IU/L
TERMINAL_BW [6]: 256.8 g
TERMINAL_BW [7]: 323.2 g
TERMINAL_BW [8]: 383.9 g
APTT [6]: 16.7 s
Bas [6]: 0%
Eos [6]: 1%
Fbg [6]: 246.6 mg/dL
Hb [6]: 14.8 g/dL
Ht [6]: 44.6%
Lym [6]: 83.2%
MCH [6]: 21.1 pg
MCHC [6]: 33.2%
MCV [6]: 63.5 fL
Mono [6]: 3.4%
Neu [6]: 12.6%
PT [6]: 11.8 s
Plat [6]: 112.6 x10_4/uL
RBC [6]: 702.2 x10_4/ul
Ret [6]: 4.6%
WBC [6]: 108.6 x10_2/uL
APTT [7]: 16.8 s
Bas [7]: 0%
Eos [7]: 0.8%
Fbg [7]: 242.8 mg/dL
Hb [7]: 14.6 g/dL
Ht [7]: 44%
Lym [7]: 81%
MCH [7]: 20.5 pg
MCHC [7]: 33.2%
MCV [7]: 61.7 fL
Mono [7]: 4.8%
Neu [7]: 13.4%
PT [7]: 11.7 s
Plat [7]: 111.9 x10_4/uL
RBC [7]: 714 x10_4/ul
Ret [7]: 4.4%
APTT [8]: 16.6 s
Bas [8]: 0%
Eos [8]: 1%
Fbg [8]: 225.8 mg/dL
Hb [8]: 15.4 g/dL
Ht [8]: 46%
Lym [8]: 83.8%
MCH [8]: 19.4 pg
MCHC [8]: 33.6%
MCV [8]: 57.8 fL
Mono [8]: 2.8%
Neu [8]: 12.4%
PT [8]: 12.1 s
RBC [8]: 795.8 x10_4/ul
Ret [8]: 2.4%
WBC [8]: 167 x10_2/uL
KIDNEY_L [6]: 1.2 g
KIDNEY_R [6]: 1.2 g
KIDNEY_TOTAL [6]: 2.3 g
KIDNEY_L [7]: 1.3 g
KIDNEY_R [7]: 1.3 g
KIDNEY_TOTAL [7]: 2.6 g
KIDNEY_L [8]: 1.4 g
KIDNEY_R [8]: 1.4 g
KIDNEY_TOTAL [8]: 2.9 g
LIVER [6]: 11.7 g
LIVER [7]: 15.3 g
LIVER [8]: 16.6 g
ALP [6]: 753 IU/L
ALT [6]: 25.2 IU/L
AST [6]: 56.6 IU/L
BUN [6]: 21.6 mg/dL
CRE [6]: 0.6 mg/dL
Ca [6]: 11.3 mg/dL
DBIL [6]: 0.012 mg/dL
GLC [6]: 192.6 mg/dL
IP [6]: 8.6 mg/dL
K [6]: 4.5 meq/L
Na [6]: 137.8 meq/L
PL [6]: 156 mg/dL
RALB [6]: 4.2 g/dL
TBIL [6]: 0.3 mg/dL
TC [6]: 81.2 mg/dL
TG [6]: 85.2 mg/dL
TP [6]: 6.2 g/dL
gamma-GTP [6]: 2.4 IU/L
ALP [7]: 823.2 IU/L
ALT [7]: 27.2 IU/L
AST [7]: 56.8 IU/L
BUN [7]: 19.4 mg/dL
CRE [7]: 0.6 mg/dL
DBIL [7]: 0 mg/dL
GLC [7]: 185.4 mg/dL
IP [7]: 7.5 mg/dL
K [7]: 4.4 meq/L
LDH [7]: 74.8 IU/L
Na [7]: 138.8 meq/L
PL [7]: 158.6 mg/dL
RALB [7]: 3.9 g/dL
TBIL [7]: 0.2 mg/dL
TC [7]: 69.8 mg/dL
TG [7]: 161.6 mg/dL
TP [7]: 6.2 g/dL
gamma-GTP [7]: 2 IU/L
ALP [8]: 525.8 IU/L
ALT [8]: 29.4 IU/L
AST [8]: 59.2 IU/L
BUN [8]: 20.6 mg/dL
CRE [8]: 0.6 mg/dL
Ca [8]: 11 mg/dL
DBIL [8]: 0.014 mg/dL
GLC [8]: 188.4 mg/dL
IP [8]: 6.9 mg/dL
K [8]: 4.8 meq/L
LDH [8]: 74.4 IU/L
Na [8]: 139.6 meq/L
PL [8]: 153.4 mg/dL
RALB [8]: 4.1 g/dL
TBIL [8]: 0.3 mg/dL
TC [8]: 70 mg/dL
TG [8]: 160.6 mg/dL
TP [8]: 6.6 g/dL
gamma-GTP [8]: 2.8 IU/L
TERMINAL_BW (50 mg/kg, 72 h, dose level Middle, time 3 day): 239.5 g
